Results on 1 molecule are retold here after patent US7479492B2, “Use combined 5-HT1A agonists and selective serotonin reuptake inhibitors” (Merck Patent GmbH, priority 2000, dated 2009).

The test system of test [1] is writhing response induced by phenylbenzoquinone (PBQ) or acetic acid. Description: Phenylbenzoquinone and acetic writhing tests in mice. The class given is in vivo, mouse. The following applies: 30 mg/kg p.o., PBQ 1.25 mg/kg i.p. or acetic acid 0.5% i.p. Here is the method:
5. Phenylbenzoquinone and acetic writhing tests in mice follow the methods described by Hendershot et al (J. Pharmacol. Exp. Ther. 1959, 125: 237-240): Mice are injected with phenylbenzoquinone (PBQ) (1.25 mg/kg i.p.) or acetic acid (0.5% i.p.). This treatment induces a recognizable writhing response in control animals. The number of writhes is counted for 10 minutes beginning 5 minutes after injection of PBQ or acetic acid.
In general terms: An intraperitoneal irritant provokes the stretching counted in writhing tests.

Test [2] relates to formalin-induced pain response (flinching). The test is described as follows: Formalin paw test in the mouse or rat. The class given is in vivo. The following applies: 30 mg/kg p.o.; intraplantar 5% formalin. Here is the method: 1. Formalin paw test in the mouse or rat accorrding to Wheeler-Aceto et al., (Psychopharmacology 1991, 104: 35-44): Animals are given an intraplantar injection of 5% formalin (25 μl for the mouse, 50 μl for the rat) into the posterior left paw. This treatment induces a recognizable flinching response in control animals. The number of flinches is counted for 10 minutes, beginning immediately after injection of formalin (early phase) and again for 5 minutes in mice or 15 minutes in rats, beginning 20 minutes after the injection.

`Cl.N#Cc1ccc2[nH]cc(CCCCN3CCN(c4ccc5oc(C(N)=O)cc5c4)CC3)c2c1` [1-[4-(5-cyanoindol-3-yl)butyl]-4-(2-carbamoyl-benzofuran-5-yl)-piperazine hydrochloride]: in test [1], the reduction of writhes is given as 82%. Further, in test [2], the “reduction of the formalin-induced pain response” value amounted to 79%.
